Paper PMC7174758, “Synthesis and Biological Evaluation of HDAC Inhibitors With a Novel Zinc Binding Group” (Frontiers in Chemistry, 2020)

Columns and labels:
[1] = biological target: T1, HDAC1 (Homo sapiens, UniProt Q13547); assay: Fluor de Lys HDAC1 assay kit; type: biochemical; details: three independent experiments, mean ± SD
T1 construct: purchased Enzo Life Sciences BML-AK511
Protocol: (§1) The generated fluorescence after the deacetylation of HDAC could be detected at the wavelengths of 485 nm (excitation) and 530 nm (emission) using the microplate reader (PerkinElmer, USA). The dose response of inhibition experiment was carried out in triplicate, and the IC50 data was calculated by GraphPad Prism 5.

[2] = biological target: T2, HDAC6 (Homo sapiens, UniProt Q9UBN7); assay: Fluor de Lys HDAC6 assay kit; type: biochemical
T2 construct: purchased Enzo Life Sciences BML-AK516
T2 sequence (Q9UBN7 1-1215): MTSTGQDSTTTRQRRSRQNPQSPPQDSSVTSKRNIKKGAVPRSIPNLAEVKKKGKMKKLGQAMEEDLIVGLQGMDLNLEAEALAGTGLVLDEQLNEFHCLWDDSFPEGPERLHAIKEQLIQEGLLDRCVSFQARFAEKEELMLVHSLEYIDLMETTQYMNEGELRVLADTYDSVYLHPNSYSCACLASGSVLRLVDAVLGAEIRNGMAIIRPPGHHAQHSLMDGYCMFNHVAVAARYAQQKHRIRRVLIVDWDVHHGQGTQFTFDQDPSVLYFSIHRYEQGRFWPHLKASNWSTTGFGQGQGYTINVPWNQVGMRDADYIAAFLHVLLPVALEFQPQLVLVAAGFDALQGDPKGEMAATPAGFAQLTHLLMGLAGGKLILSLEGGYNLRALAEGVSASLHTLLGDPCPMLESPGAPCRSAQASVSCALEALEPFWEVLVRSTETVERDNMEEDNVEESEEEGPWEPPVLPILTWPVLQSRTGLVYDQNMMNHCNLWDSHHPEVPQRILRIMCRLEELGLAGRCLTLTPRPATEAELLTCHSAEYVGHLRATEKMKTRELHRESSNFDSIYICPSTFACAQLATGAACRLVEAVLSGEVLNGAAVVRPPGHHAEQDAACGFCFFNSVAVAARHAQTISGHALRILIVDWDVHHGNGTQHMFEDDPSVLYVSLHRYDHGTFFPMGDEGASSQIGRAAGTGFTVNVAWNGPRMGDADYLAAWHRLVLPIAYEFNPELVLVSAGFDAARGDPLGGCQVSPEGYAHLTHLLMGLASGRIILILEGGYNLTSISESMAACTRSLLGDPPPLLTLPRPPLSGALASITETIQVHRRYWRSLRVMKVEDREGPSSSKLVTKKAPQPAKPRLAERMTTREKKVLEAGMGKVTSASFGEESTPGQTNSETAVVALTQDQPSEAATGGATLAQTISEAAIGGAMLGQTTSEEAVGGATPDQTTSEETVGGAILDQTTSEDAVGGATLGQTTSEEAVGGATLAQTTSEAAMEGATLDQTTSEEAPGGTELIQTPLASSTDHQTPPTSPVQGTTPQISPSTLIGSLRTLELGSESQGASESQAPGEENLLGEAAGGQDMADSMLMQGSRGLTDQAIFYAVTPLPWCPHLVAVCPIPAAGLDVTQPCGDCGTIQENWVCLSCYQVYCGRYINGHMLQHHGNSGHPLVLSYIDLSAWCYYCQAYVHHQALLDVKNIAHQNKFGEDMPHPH
Protocol: as §1

[3] = system: acetyl-histone H3; assay: Western blot, acetylation of histone H3 in Hela cells; type: cell-based, human; details: 20 and 40 μM, 48 h
Protocol: (§2) Afterwards, the Hela cells were collected using centrifugation, and were then lysed by the lysate, which were carried out further centrifugation at 12,000 rpm for 30 min. The protein of supernatant obtained by centrifugation was quantified using the BCA kit (Beijing Solarbio Science & Technology Co., Ltd.), and the protein extracts were mixed with the SDS-PAGE protein loading buffer (Beijing Solarbio Science & Technology Co., Ltd.), which were subject to 100°C water bath for 10 min to sufficiently denaturate. The gel was gelatinized using the SDS Gel Kit (Beijing Solarbio Science & Technology Co., Ltd.) and protein extracts were separated by protein SDS-polyacrylamide gel electrophoresis and then transferred to Immobilon-NC Membrane (Beijing Solarbio Science & Technology Co., Ltd.). After the blocking with 5% non-fat dried milk in TBS for 90 min at room temperature, the membranes were incubated overnight with specific primary antibodies (AFFINITY BIOSCIENCE) at 4°C, which were further incubated with secondary antibodies for 2 h after washing three times with TBST. The chemiluminescence analysis system was applied to label the target protein with a specific primary antibody and the target protein was detected using a specific antibody.

[4] = system: acetyl-α-tubulin; assay: Western blot, acetylation of α-tubulin in Hela cells; type: cell-based, human; details: 20 and 40 μM, 48 h
Protocol: as §2

[5] = system: A549; assay: MTT anti-proliferative assay, A549; details: Homo sapiens, A549, 48 h, read-out: IC50 A549
Protocol: (§3) The antitumor bioactivities of the tittle compounds in vitro were firstly evaluated against four different human tumor cell lines [breast lung cancer (A549), cervical cancer (Hela), liver cancer (HepG2), breast cancer (MCF-7)] via MTT assay, and a normal cell line [human lung fibroblast (WI-38)] was applied to assess the safety of the synthesized compounds. […] In this study, the tested compounds were diluted to the required concentration with culture medium, and growth inhibitory effects against the cell lines of the tittle compounds were determined by MTT colorimetric assay. […] The microplate reader was adopted to record the absorbance at 490 nm for each well of the plates.

[6] = system: Hela; assay: MTT anti-proliferative assay, Hela; details: Homo sapiens, 48 h, read-out: IC50 Hela
Protocol: as §3

[7] = system: HepG2; assay: MTT anti-proliferative assay, HepG2; details: Homo sapiens, HepG2, 48 h, read-out: IC50 HepG2
Protocol: as §3

[8] = system: MCF-7; assay: MTT anti-proliferative assay, MCF-7; details: Homo sapiens, MCF7, 48 h, read-out: IC50 MCF-7
Protocol: as §3

[9] = system: WI-38; assay: MTT cytotoxicity assay, normal cell line WI-38; details: Homo sapiens, WI-38, 48 h, read-out: IC50 WI-38
Protocol: as §3

[10] = system: HDACs extracted from Hela cervical cancer cells; assay: Enzyme inhibition assay, Hela nuclear extract (HDAC Inhibitor Drug Screening Kit); details: read-out: Hela nuclear extract IC50; mean ± SD of three experiments

T1 sequence (Q13547 whole entry): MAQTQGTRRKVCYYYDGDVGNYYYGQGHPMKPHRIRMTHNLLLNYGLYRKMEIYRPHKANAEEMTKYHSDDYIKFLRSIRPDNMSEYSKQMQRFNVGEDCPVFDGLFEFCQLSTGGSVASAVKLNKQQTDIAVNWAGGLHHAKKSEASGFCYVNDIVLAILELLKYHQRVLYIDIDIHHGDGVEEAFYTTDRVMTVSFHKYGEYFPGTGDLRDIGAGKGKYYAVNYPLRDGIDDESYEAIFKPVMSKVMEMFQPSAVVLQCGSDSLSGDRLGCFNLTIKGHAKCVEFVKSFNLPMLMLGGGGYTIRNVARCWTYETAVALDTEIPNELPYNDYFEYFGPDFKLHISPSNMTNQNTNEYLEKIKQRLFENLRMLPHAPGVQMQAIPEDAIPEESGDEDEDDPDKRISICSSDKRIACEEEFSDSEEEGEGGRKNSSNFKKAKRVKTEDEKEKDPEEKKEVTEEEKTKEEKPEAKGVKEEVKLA

O=C(CCCCCNC(=O)c1ccc(-c2ccccc2)cc1)NCCO [b8, N-(6-((2-hydroxyethyl)amino)-6-oxohexyl)-[1, 1'-biphenyl]-4-carboxamide]
IC50 [1]: 56.5 ± 2.7 µM
inhibitory activity on HDAC6 relative to HDAC1 ([2]; HDAC6 vs HDAC1): more than ten folds
IC50 ([2]; three independent experiments, mean ± SD): 4.2 ± 1.27 µM
acetylation level of histone H3 [3]: insensitive
acetylation level of α-Tubulin [4]: increase
melting point: 147.6 to 148.5 °C
IC50 [5]: 26.5 ± 0.26 µM
IC50 [6]: 13.7 ± 1.31 µM
IC50 [7]: 28.4 ± 0.65 µM
IC50 [8]: 40.1 ± 7.05 µM
IC50 [9]: 95.9 ± 4.28 µM
IC50 [10]: 22.5 ± 5.2 µM
